Our source for the IC50 and inhibition values is patent US9157077B2, “Aminopyrimidine kinase inhibitors” (Jasco Pharmaceuticals, LLC, priority 2009, dated 2015).

The target of experiment [1] is Enzyme (kinases of Table 30) (Homo sapiens, UniProt Q86V86). The experiment is described as follows: IC50 of Compound (nM) (ATP present at Km of enzyme), Table 30. The class given is biochemical.
Experiment [2] deals with Enzyme (kinases of Table 30) (Homo sapiens, UniProt P11309). Described as above. The class given is biochemical.
In experiment [3] the target is Enzyme (kinases of Table 30) (Homo sapiens, UniProt Q9P1W9). The experiment is described as above. Type of experiment: biochemical.
In a further experiment the test system is cell lines. Nature of the experiment: Selected cell proliferation inhibition data: cytotoxicity and IC50 determination (MTS/PMS, 72 hours), Tables 27 and 28. The class given is cell-based. The settings on record: Homo sapiens; for inhibition at 30 µM: 30 μM compound; for IC50: 72 hours, MTS. How it is done:
Selected Cell Proliferation Inhibition Data
All cells were cultured in media supplemented with 10% FBS except for which are marked specially, in the temperature of 37° C., 5% CO2 and 95% humidity. All culture media were purchased from GIBCO (USA, IMDM Cat. 12200-036; RPMI Medium 1640 Cat. 31800-022; 2-mercaptoethanol Cat. 21985-023).
• CellTiter 96® AQueous MTS reagent powder (Cat. No.: G11 12, Promega. Store MTS Reagent Powder desiccated at 4° C. protected from light.) • Phenazine methosulfate (PMS) (Product No.: P9625, SIGMA. Store PMS Powder desiccated at 4° C. protected from light.) Preparation of PMS Solution:
The following protocol is recommended for the preparation of 21 mL of MTS solution (sufficient for ten 96-well plates). • a. Select a light-protected container or wrap a container with foil. • b. Add 21 mL of DPBS to the container. • c. Weigh out 42 mg of MTS Reagent Powder and add to DPBS. • d. Mix at moderate speed on a magnetic stir plate for 15 minutes or until the MTS is completely dissolved. • e. Measure the pH of the MTS solution. The optimum pH is between pH 6.0 to 6.5. If the solution is above pH 6.5, adjust to pH 6.5 with 1N HC1. • f. Filter-sterilize the MTS solution through a 0.2 μm filter into a sterile, light protected container. • g. Store the MTS solution at −20° C., protected from light. Preparation of the Mixture of MTS/PMS: • a. In order to prepare reagents sufficient for one 96-well plate containing cells cultured in a 100 μL volume, thaw the MTS solution and the PMS solution. It should take approximately 90 minutes at room temperature or 10 minutes in a 37° C. water bath to completely thaw the 20 mL size of MTS solution. […] Remove 2.0 mL of MTS solution from the amber reagent bottle using aseptic technique and transfer to a test tube. • c. Add 100 μL of PMS solution to the 2.0 mL of MTS solution immediately before addition to the culture plate containing cells. • d. Gently swirl the tube to ensure complete mixing of the combined MTS/PMS solution. Equipment:
• 1. The cells were harvested respectively during the logarithmic growth period and counted with hemocytometer. The cell viability was over 98% by trypan blue exclusion. • 2. Cell concentrations were adjusted to 2.22×10^5 or 1.11×10^5 or 5.56×10^4 cells/mL with respective medium. • 3. 90 μL cell suspensions were added to 96-well plates (triplicates for each cell concentration), the final cell densities were 2×10^4 or 1×10^4 or 5×10^3 cells/well. The density of 5×10^3 cells/well was used for the first test. The appropriate cell density was determined and adjusted according to the results of the first test. • 4. The next day, test article or positive drugs were dissolved with DMSO as stock solution at the concentration of 20 mM. • 5. 10 μL drug solution was dispensed in each well (triplicate for each drug concentration). • 6. Plates were cultured for another 72 hours, then measured by means of MTS assay. • 7. MTS/PMS solution was prepared immediately prior to use. 20 μL of the mixture was introduced into each well of the 96-well assay plate containing 100 μL culture medium. (The final reaction volume was 120 μL). • 8. Plate was incubated for 1-4 hours at 37° C. in a humidified 5% CO2 atmosphere. • 9. Absorbance at 490 nm was recorded using SpectraMAX Plus microplate spectrophotometer. Data Analysis:
The software of GraphPad Prism version 5 was used to calculate IC50. The graphical curves were fitted using a nonlinear regression model with a sigmoidal dose.

The mark [4] stands for this setting: Pim-3(h), ATP present at Km of enzyme, read-out: IC50 of Compound, Pim-3(h).
The mark [5] stands for this setting: Pim-1(h), ATP present at Km of enzyme, read-out: IC50 of Compound, Pim-1(h).
Setting [6] is: Pim-2(h), ATP present at Km of enzyme, read-out: IC50 of Compound, Pim-2(h).
Setting [7] is: MV4-11 cell line, read-out: Percent inhibition at 30 μM of Compound, MV4-11.
[8] abbreviates: MV4-11 cell line, read-out: IC50 values, MV4-11.
Setting [9] is: NCI-H929 cell line, read-out: Percent inhibition at 30 μM of Compound, NCI-H929.
[10] abbreviates: NCI-H929 cell line, read-out: IC50 values, NCI-H929.
Where [11] appears, read: RPMI 8226 cell line, read-out: Percent inhibition at 30 μM of Compound, RPMI 8226.
The mark [12] stands for this setting: RPMI 8226 cell line, read-out: IC50 values, RPMI 8226.

Molecules are shown by their SMILES. Where two headings read alike, the source gives them in different places. Bounds are passed on as bounds.

Sequence of Enzyme (kinases of Table 30) (Homo sapiens, UniProt P11309) (P11309 whole entry): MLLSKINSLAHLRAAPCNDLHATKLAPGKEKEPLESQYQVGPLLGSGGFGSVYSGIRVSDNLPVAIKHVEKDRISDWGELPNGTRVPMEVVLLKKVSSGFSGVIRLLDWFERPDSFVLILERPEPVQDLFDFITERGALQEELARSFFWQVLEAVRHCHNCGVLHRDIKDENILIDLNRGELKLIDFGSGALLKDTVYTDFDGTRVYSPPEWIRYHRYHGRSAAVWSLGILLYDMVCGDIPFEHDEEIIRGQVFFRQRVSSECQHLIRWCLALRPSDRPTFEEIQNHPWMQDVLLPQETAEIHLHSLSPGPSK
Sequence of Enzyme (kinases of Table 30) (Homo sapiens, UniProt Q9P1W9) (Q9P1W9 whole entry): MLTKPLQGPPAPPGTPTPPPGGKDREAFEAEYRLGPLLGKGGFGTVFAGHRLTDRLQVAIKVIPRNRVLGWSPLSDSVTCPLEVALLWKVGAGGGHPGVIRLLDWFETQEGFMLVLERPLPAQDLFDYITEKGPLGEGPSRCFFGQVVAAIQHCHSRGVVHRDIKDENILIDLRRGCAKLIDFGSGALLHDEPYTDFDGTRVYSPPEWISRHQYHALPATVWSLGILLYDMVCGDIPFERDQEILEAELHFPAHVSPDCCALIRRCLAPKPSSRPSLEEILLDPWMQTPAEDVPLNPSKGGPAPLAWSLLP

One may read the IC50 as the point on the concentration scale where inhibition reaches its midpoint. Turning to `O=C1NC(=O)/C(=C/c2ccnc(N3CCC(CNCc4cccc(-c5cccs5)n4)CC3)n2)S1` [compound 205], the IC50 in experiment [1] (setting [4]) stood at 38 nM; in experiment [2] (setting [5]) it was 54 nM; in experiment [3] (setting [6]), 199 nM.
As a reminder, the inhibition is the relative decrease from the control value, in per cent. As for `O=C1NC(=O)/C(=C/c2ccnc(N3CCC(CNCc4nccc5ccccc45)CC3)n2)S1` [Example 182, (Z)-5-((2-(4-(((isoquinolin-1-ylmethyl)amino)methyl)piperidin-1-yl)pyrimidin-4-yl)methylene)thiazolidine-2,4-dione], the inhibition at 30 µM in the experiment on cell lines (setting [7]) is 91.1%; with cell lines (setting [9]), 96.5%; with cell lines (setting [11]), 90.2%. Moreover, the figures for the IC50 in the experiment with cell lines (setting [8]), in the experiment with cell lines (setting [10]) and in the experiment with cell lines (setting [12]) were 2020 nM, 7080 nM and 11900 nM, respectively.
`NCc1cccc(CNc2nccc(/C=C3\SC(=O)NC3=O)n2)c1` [compound 159]: the half-maximal inhibitory concentration (IC50) in experiment [1] (setting [4]) is 231 nM; in experiment [2] (setting [5]), over 1000 nM; in experiment [3] (setting [6]) it was 104 nM.
As for `O=C1NC(=O)/C(=C/c2ccnc(N3CCC(CNCc4ccc5ccccc5n4)CC3)n2)S1` [Example 180, (Z)-5-((2-(4-(((quinolin-2-ylmethyl)amino)methyl)piperidin-1-yl)pyrimidin-4-yl)methylene)thiazolidine-2,4-dione], the inhibition at 30 µM in the experiment with cell lines (setting [7]) amounted to 90.7%; in the experiment with cell lines (setting [9]), 100%; in the experiment with cell lines (setting [11]), 79.7%. Further, the IC50 in the experiment with cell lines (setting [8]) stood at 11000 nM; with cell lines (setting [10]), 10900 nM; in the experiment on cell lines (setting [12]), 9140 nM.
As to `O=C1NC(=O)/C(=C/c2ccnc(N3CCC(CNCc4ccccn4)CC3)n2)S1` [compound 172], the concentration for half-maximal inhibition (IC50) in experiment [1] (setting [4]) amounted to 46 nM; in experiment [2] (setting [5]), 157 nM; in experiment [3] (setting [6]) it was 142 nM.
The like results for `O=C1NC(=O)/C(=C/c2ccnc(N3CCC(CNCc4ccc5ccccc5n4)CC3)n2)S1` [compound 180] were, in that order, 15 nM, 13 nM and 15 nM.
With `O=C1NC(=O)/C(=C/c2ccnc(N3CCC(CNCc4ccc5cc(F)ccc5n4)CC3)n2)S1` [compound 191], the IC50 stood at 5 nM in experiment [1] (setting [4]), 6 nM in experiment [2] (setting [5]) and 23 nM in experiment [3] (setting [6]).
For `Cc1cc(CNCC2CCN(c3nccc(/C=C4\SC(=O)NC4=O)n3)CC2)c2ccccc2n1` [compound 181] the same measures were 34 nM, 79 nM and 44 nM.
With `O=C1NC(=O)/C(=C/c2ccnc(N3CCCC4NCCCC43)n2)S1` (stereo not shown) [compound 155], the IC50 turned out to be 9 nM in experiment [1], 19 nM in experiment [2] and 14 nM in experiment [3].
As for `COc1cccc(CNCC2CCN(c3nccc(/C=C4\SC(=O)NC4=O)n3)CC2)n1` [Example 183, (Z)-5-((2-(4-((((6-methoxypyridin-2-yl)methyl)amino)methyl)piperidin-1-yl)pyrimidin-4-yl)methylene)thiazolidine-2,4-dione], the inhibition at 30 µM in the experiment with cell lines (setting [7]) came out at 94.4%; in the experiment with cell lines (setting [9]), 98.6%; in the experiment on cell lines (setting [11]), 82.3%. The IC50 with cell lines (setting [10]) stood at 4600 nM; in the experiment on cell lines (setting [12]) it was 9600 nM.
On to `CC1CC(C)CN(c2nccc(/C=C3\SC(=O)NC3=O)n2)C1` (stereo not shown) [compound 99], for which the values for the IC50 in experiment [1] (setting [4]), in experiment [2] (setting [5]) and in experiment [3] (setting [6]) were 199 nM, 137 nM and 18 nM, respectively.
As for `Cc1ccc(N2CCN(c3nccc(/C=C4\SC(=O)NC4=O)n3)CC2)cc1` [Example 9, (Z)-5-((2-(4-(p-tolyl)piperazin-1-yl)pyrimidin-4-yl)methylene)thiazolidine-2,4-dione], the inhibition at 30 µM in the experiment with cell lines (setting [7]) is 91.1%; with cell lines (setting [9]), 91.4%; in the experiment on cell lines (setting [11]), 71.2%. The figures for the half-maximal inhibitory concentration (IC50) with cell lines (setting [8]), in the experiment with cell lines (setting [10]) and in the experiment on cell lines (setting [12]) were 6780 nM, 11500 nM and 16100 nM, respectively.
As for `Cc1cc(CNCC2CCN(c3nccc(/C=C4\SC(=O)NC4=O)n3)CC2)c2ccccc2n1` [Example 181, (Z)-5-((2-(4-((((2-methylquinolin-4-yl)methyl)amino)methyl)piperidin-1-yl)pyrimidin-4-yl)methylene)thiazolidine-2,4-dione], the inhibition at 30 µM in the experiment with cell lines (setting [7]) is 96.6%; in the experiment with cell lines (setting [9]), 93.5%; in the experiment on cell lines (setting [11]) it was 82.2%. Moreover, the IC50 worked out at 1200 nM in the experiment on cell lines (setting [8]), 4420 nM in the experiment on cell lines (setting [10]) and 3410 nM in the experiment with cell lines (setting [12]).
For `COc1cccc2ccc(CNCC3CCN(c4nccc(/C=C5\SC(=O)NC5=O)n4)CC3)nc12` [Example 189, (Z)-5-((2-(4-((((8-methoxyquinolin-2-yl)methyl)amino)methyl)piperidin-1-yl)pyrimidin-4-yl)methylene)thiazolidine-2,4-dione], the inhibition at 30 µM amounted to 97.9% with cell lines (setting [7]), 98.5% in the experiment with cell lines (setting [9]) and 99.9% in the experiment on cell lines (setting [11]). Besides, the IC50 with cell lines (setting [8]) worked out at 4710 nM; in the experiment with cell lines (setting [10]), 3040 nM; in the experiment on cell lines (setting [12]), 8320 nM.
With `O=C1NC(=O)/C(=C/c2ccnc(N3CCC(CNCc4ccc5cc(F)ccc5n4)CC3)n2)S1` [Example 191, (Z)-5-((2-(4-((((6-fluoroquinolin-2-yl)methyl)amino)methyl)piperidin-1-yl)pyrimidin-4-yl)methylene)thiazolidine-2,4-dione], the values for the inhibition at 30 µM in the experiment on cell lines (setting [7]), in the experiment with cell lines (setting [9]) and with cell lines (setting [11]) were 87.4%, 94% and 93.1%, respectively. Also, the IC50 with cell lines (setting [8]) worked out at 2400 nM; in the experiment on cell lines (setting [10]) it was 3260 nM; with cell lines (setting [12]) it was 6860 nM.
For the molecule `O=C1NC(=O)/C(=C/c2ccnc(NC3CNc4ccccc4C3)n2)S1` (stereo not shown) [Example 140, (Z)-5-((2-((1,2,3,4-tetrahydroquinolin-3-yl)amino)pyrimidin-4-yl)methylene)thiazolidine-2,4-dione], the inhibition at 30 µM was 94.3% with cell lines (setting [7]), 96.7% in the experiment with cell lines (setting [9]) and 65.3% in the experiment on cell lines (setting [11]). Further, the IC50 with cell lines (setting [8]) is 5510 nM; with cell lines (setting [10]) it was 8840 nM; in the experiment with cell lines (setting [12]) it was 11200 nM.
Regarding `Nc1cccc2c1CCN(c1nccc(/C=C3\SC(=O)NC3=O)n1)C2` [Example 120, (Z)-5-((2-(5-amino-3,4-dihydroisoquinolin-2(1H)-yl)pyrimidin-4-yl)methylene)thiazolidine-2,4-dione], the values for the inhibition at 30 µM in the experiment with cell lines (setting [7]), in the experiment on cell lines (setting [9]) and in the experiment with cell lines (setting [11]) were 95.1%, 89.8% and 76.4%, respectively. Besides, the values for the IC50 with cell lines (setting [8]), in the experiment with cell lines (setting [10]) and in the experiment on cell lines (setting [12]) were 4050 nM, 2810 nM and 1540 nM, respectively.
Take `O=C1NC(=O)/C(=C/c2ccnc(N3CCCC4NCCCC43)n2)S1` (stereo not shown) [Example 155, (Z)-5-((2-(octahydro-1,5-naphthyridin-1(2H)-yl)pyrimidin-4-yl)methylene)thiazolidine-2,4-dione]: the inhibition at 30 µM came out at 97.6% in the experiment on cell lines (setting [7]), 73.7% in the experiment on cell lines (setting [9]) and 53.9% with cell lines (setting [11]). In addition, the results for the IC50 with cell lines (setting [8]) and in the experiment with cell lines (setting [10]) were 12500 nM and 3960 nM, respectively.
